Test results taken from patent publication US10457707B2, “Substituted urea depsipeptide analogs as activators of the CLPP endopeptidase” (priority 2015, dated 2019).
In brackets after ≈: the same amount, converted by molar mass. Read-outs that look alike come from different tables or passages of the source. *1 amine or outer side, *2 acyl side, *3 side chain or, on linkers, in order; H or OH if unused. Where a SMILES comes first, the peptide text is derived from it. Bridges are numbered along the chain shown (N, C = ends). [ ]: non-standard residue; d: D form. The star is where a group is joined. ξ: configuration not given here. Phe(3,5-F2) = N[C@@H](Cc1cc(F)cc(F)c1)C(=O)O; NH(1-Me-indolin-5-yl) = CN1CCc2cc(N*)ccc21; NH(4-Cl-2-F-phenyl) = Fc1cc(Cl)ccc1N*; Pro(4R-Me) = C[C@H]1CN[C@H](C(=O)O)C1; Hyp = O=C(O)[C@@H]1C[C@@H](O)CN1; ξNMeThr = CNC(C(=O)O)[C@@H](C)O; aThr = C[C@H](O)[C@H](N)C(=O)O; Pip = O=C(O)[C@@H]1CCCCN1; X2 = CN1CCc2ccc(N*)cc21; CO = O=C([*:1])[*:2]; X7 = CC/C=C/C(=O)*

Experiments:
[1] = target: T1, Sa-ClpP (Staphylococcus aureus, UniProt Q2G036); assay: ADEP displacement fluorescence polarization assay (FP probe ADEP 2591); assay type: binding
T1 construct: made in house; host or cells: E. coli BL21(DE3)
T1 sequence (Q2G036 1-195): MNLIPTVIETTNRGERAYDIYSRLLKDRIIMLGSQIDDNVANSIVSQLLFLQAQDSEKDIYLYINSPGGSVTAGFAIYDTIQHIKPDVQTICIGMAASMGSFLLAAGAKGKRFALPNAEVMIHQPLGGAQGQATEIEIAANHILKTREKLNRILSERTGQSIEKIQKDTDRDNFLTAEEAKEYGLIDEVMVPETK
In short: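 Probe displacement was measured in mP after compounds sat 120 min at room temperature with pre-equilibrated (1 h) Sa-ClpP (15 μM) and ADEP 2591 FP probe (50 nM) in pH 8.0 Tris-HCl with 2% DMSO. Data were scaled between DMSO and 200 μM ADEP 2378 and fit by variable-slope log-inhibitor regression.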

[2] = test system: Enterococcus faecalis, ATCC 33186; assay: Minimal inhibitory concentration assay (microbroth dilution); assay type: cell-based
In short: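 Compound is serially diluted two-fold in the appropriate broth, and bacterial inoculum at about 10^5 cfu/mL is added so the highest final concentration is 200 μM. Plates stay overnight at 37 °C under aerobic conditions before growth is scored by eye.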

[3] = Enterococcus faecalis, ATCC33186, read-out: Minimal Inhibitory Concentrations E. faecalis ATCC 33186

SMILES	IC50 [1] [µM]	MIC [2, 3] [µM]	MIC ([2]; Enterococcus faecalis, ATCC33186; read-out: Minimal Inhibitory Concentrations E. faecalis ATCC 33186) [µM]
C[C@@H]1C[C@H]2C(=O)O[C@@H](C)[C@H](NC(=O)[C@H](Cc3cc(F)cc(F)c3)NC(=O)Nc3ccc4c(c3)N(C)CC4)C(=O)N3CCC[C@H]3C(=O)N3CCCC[C@H]3C(=O)N[C@@H](C)C(=O)N2C1 [Compound 321, (S)-3-(3,5-difluorophenyl)-2-(3-(1-methylindolin-6-yl)ureido)-N-((2R,6S,8aS,14aS,20S,21S,23aS)-2,6,21-trimethyl-5,8,14,19,23-pentaoxooctadecahydro-1H,5H,14H,19H-pyrido[2,1-i]dipyrrolo[2,1-c:2′,1′-l][1]oxa[4,7,10,13]tetraazacyclo-hexadecin-20-yl)propanamide] ({X2-CO}-[Phe(3,5-F2)][aThr]P[Pip]A[Pro(4R-Me)]; ester 2-C)	8.23 ± 0.7	0.078 (≈ 0.0662 µg/mL)	–
CC/C=C/C(=O)N[C@@H](Cc1cc(F)cc(F)c1)C(=O)N[C@@H]1C(=O)N2C[C@H](O)C[C@H]2C(=O)N2CCCC[C@H]2C(=O)N[C@@H](C)C(=O)N2C[C@H](C)C[C@H]2C(=O)O[C@H]1C [Compound 300] (X7-[Phe(3,5-F2)][aThr][Hyp][Pip]A[Pro(4R-Me)]; ester 2-C)	5.94 ± 0.3	0.039 (≈ 0.0301 µg/mL)	–
C[C@@H]1C[C@H]2C(=O)O[C@@H](C)[C@H](NC(=O)[C@H](Cc3cc(F)cc(F)c3)NC(=O)Nc3ccc4c(c3)CCN4C)C(=O)N3CCC[C@H]3C(=O)N(C)C([C@@H](C)O)C(=O)N[C@@H](C)C(=O)N2C1 (stereo partly drawn) [Compound 311, (S)-3-(3,5-difluorophenyl)-N-((2R,6S,9R,11aS,17S,18S,20aS)-9-((R)-1-hydroxyethyl)-2,6,10,18-tetramethyl-5,8,11,16,20-pentaoxohexadecahydro-1H,5H,16H-dipyrrolo[2,1-c:2′,1′-l][1]oxa[4,7,10,13]tetraazacyclohexadecin-17-yl)-2-(3-(1-methylindolin-5-yl)ureido)propanamide] ({NH(1-Me-indolin-5-yl)-CO}-[Phe(3,5-F2)][aThr]P[ξNMeThr]A[Pro(4R-Me)]; ester 2-C)	7.5 ± 0.3	0.039 (≈ 0.0333 µg/mL)	–
C[C@@H]1C[C@H]2C(=O)O[C@@H](C)[C@H](NC(=O)[C@H](Cc3cc(F)cc(F)c3)NC(=O)Nc3ccc(Cl)cc3F)C(=O)N3C[C@H](O)C[C@H]3C(=O)N3CCCC[C@H]3C(=O)N[C@@H](C)C(=O)N2C1 [Compound 329, (S)-2-(3-(4-chloro-2-fluorophenyl)ureido)-3-(3,5-difluorophenyl)-N-((2R,6S,8aS,14aS,16R,20S,21S,23aS)-16-hydroxy-2,6,21-trimethyl-5,8,14,19,23-pentaoxooctadecahydro-1H,5H,14H,19H-pyrido[2,1-i]dipyrrolo[2,1-c:2′,1′-l][1]oxa[4,7,10,13]tetraazacyclo-hexadecin-20-yl)propanamide] ({NH(4-Cl-2-F-phenyl)-CO}-[Phe(3,5-F2)][aThr][Hyp][Pip]A[Pro(4R-Me)]; ester 2-C)	7.32 ± 0.4	–	0.039 (≈ 0.0336 µg/mL)
